Assay results published in PubChem BioAssay (NCI).
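How tested: cells in 96-well plates exposed to compound for 48 hours at five concentrations. Abbreviation: GI50, concentration required for 50% inhibition of growth. TGI: total growth inhibition.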

What was measured:
Assay in all cases: NCI-60 cell line screen, 48 h
MDA-MB-231 breast = system: MDA-MB-231 breast
TK-10 renal = system: TK-10 renal
RXF 393 renal = system: RXF 393 renal
KM12 colon = system: KM12 colon
OVCAR-8 ovarian = system: OVCAR-8 ovarian
SF-539 CNS = system: SF-539 CNS
SK-OV-3 ovarian = system: SK-OV-3 ovarian
K-562 leukemia = system: K-562 leukemia
MOLT-4 leukemia = system: MOLT-4 leukemia
A549 NSCLC = system: A549 NSCLC
NCI-H226 lung = system: NCI-H226 lung
MDA-MB-435 = system: MDA-MB-435
CAKI-1 renal = system: CAKI-1 renal
RPMI-8226 leukemia = system: RPMI-8226 leukemia
BT-549 breast = system: BT-549 breast
NCI-H23 lung = system: NCI-H23 lung
SR leukemia = system: SR leukemia
NCI/ADR-RES ovarian = system: NCI/ADR-RES ovarian
LOX IMVI melanoma = system: LOX IMVI melanoma
DU-145 prostate = system: DU-145 prostate
PC-3 prostate = system: PC-3 prostate
U251 CNS = system: U251 CNS
M14 melanoma = system: M14 melanoma
NCI-H460 lung = system: NCI-H460 lung
SN12C renal = system: SN12C renal
OVCAR-3 ovarian = system: OVCAR-3 ovarian
A498 renal = system: A498 renal
EKVX NSCLC = system: EKVX NSCLC
MALME-3M melanoma = system: MALME-3M melanoma
IGROV1 ovarian = system: IGROV1 ovarian
HS 578T breast = system: HS 578T breast
HOP-92 NSCLC = system: HOP-92 NSCLC
SW-620 colon = system: SW-620 colon
SNB-75 CNS = system: SNB-75 CNS
SNB-19 CNS = system: SNB-19 CNS
SF-295 CNS = system: SF-295 CNS
CCRF-CEM leukemia = system: CCRF-CEM leukemia
ACHN renal = system: ACHN renal
OVCAR-4 ovarian = system: OVCAR-4 ovarian
SK-MEL-2 melanoma = system: SK-MEL-2 melanoma
NCI-H522 lung = system: NCI-H522 lung
SK-MEL-28 melanoma = system: SK-MEL-28 melanoma
HCT-15 colon = system: HCT-15 colon
COLO 205 colon = system: COLO 205 colon
HCC-2998 colon = system: HCC-2998 colon
T-47D breast = system: T-47D breast
UO-31 renal = system: UO-31 renal
SK-MEL-5 melanoma = system: SK-MEL-5 melanoma
786-0 renal = system: 786-0 renal
HOP-62 NSCLC = system: HOP-62 NSCLC
HCT-116 colon = system: HCT-116 colon
HT29 colon = system: HT29 colon
SF-268 CNS = system: SF-268 CNS
OVCAR-5 ovarian = system: OVCAR-5 ovarian
UACC-257 melanoma = system: UACC-257 melanoma
MCF7 breast = system: MCF7 breast
UACC-62 melanoma = system: UACC-62 melanoma

COc1cc(-c2cn(-c3ccc(Cl)cc3)c(C)c2C(=O)C(F)(F)F)cc(OC)c1OC
GI50 (MDA-MB-231 breast): > 100 µM
TGI (MDA-MB-231 breast): > 100 µM
GI50 (TK-10 renal): > 100 µM
TGI (TK-10 renal): > 100 µM
GI50 (RXF 393 renal): > 100 µM
TGI (RXF 393 renal): > 100 µM
GI50 (KM12 colon): > 100 µM
TGI (KM12 colon): > 100 µM
GI50 (OVCAR-8 ovarian): > 100 µM
TGI (OVCAR-8 ovarian): > 100 µM
GI50 (SF-539 CNS): > 100 µM
TGI (SF-539 CNS): > 100 µM
GI50 (SK-OV-3 ovarian): > 100 µM
TGI (SK-OV-3 ovarian): > 100 µM
GI50 (K-562 leukemia): 22.7 µM
TGI (K-562 leukemia): > 100 µM
GI50 (MOLT-4 leukemia): 6.01 µM
TGI (MOLT-4 leukemia): > 100 µM
GI50 (A549 NSCLC): 17.9 µM
TGI (A549 NSCLC): > 100 µM
GI50 (NCI-H226 lung): > 100 µM
TGI (NCI-H226 lung): > 100 µM
GI50 (MDA-MB-435): > 100 µM
TGI (MDA-MB-435): > 100 µM
GI50 (CAKI-1 renal): > 100 µM
TGI (CAKI-1 renal): > 100 µM
GI50 (RPMI-8226 leukemia): 5.3 µM
TGI (RPMI-8226 leukemia): > 100 µM
GI50 (BT-549 breast): 46.8 µM
TGI (BT-549 breast): > 100 µM
GI50 (NCI-H23 lung): 60.5 µM
TGI (NCI-H23 lung): > 100 µM
GI50 (SR leukemia): 4.92 µM
TGI (SR leukemia): > 100 µM
GI50 (NCI/ADR-RES ovarian): > 100 µM
TGI (NCI/ADR-RES ovarian): > 100 µM
GI50 (LOX IMVI melanoma): > 100 µM
TGI (LOX IMVI melanoma): > 100 µM
GI50 (DU-145 prostate): > 100 µM
TGI (DU-145 prostate): > 100 µM
GI50 (PC-3 prostate): 13.6 µM
TGI (PC-3 prostate): > 100 µM
GI50 (U251 CNS): > 100 µM
TGI (U251 CNS): > 100 µM
GI50 (M14 melanoma): > 100 µM
TGI (M14 melanoma): > 100 µM
GI50 (NCI-H460 lung): 33.4 µM
TGI (NCI-H460 lung): > 100 µM
GI50 (SN12C renal): 12.7 µM
TGI (SN12C renal): > 100 µM
GI50 (OVCAR-3 ovarian): > 100 µM
TGI (OVCAR-3 ovarian): > 100 µM
GI50 (A498 renal): 27.2 µM
TGI (A498 renal): > 100 µM
GI50 (EKVX NSCLC): 51.3 µM
TGI (EKVX NSCLC): > 100 µM
GI50 (MALME-3M melanoma): > 100 µM
TGI (MALME-3M melanoma): > 100 µM
GI50 (IGROV1 ovarian): > 100 µM
TGI (IGROV1 ovarian): > 100 µM
GI50 (HS 578T breast): > 100 µM
TGI (HS 578T breast): > 100 µM
GI50 (HOP-92 NSCLC): 2.27 µM
TGI (HOP-92 NSCLC): 56 µM
GI50 (SW-620 colon): > 100 µM
TGI (SW-620 colon): > 100 µM
GI50 (SNB-75 CNS): 56.9 µM
TGI (SNB-75 CNS): > 100 µM
GI50 (SNB-19 CNS): > 100 µM
TGI (SNB-19 CNS): > 100 µM
GI50 (SF-295 CNS): > 100 µM
TGI (SF-295 CNS): > 100 µM
GI50 (CCRF-CEM leukemia): 16.1 µM
TGI (CCRF-CEM leukemia): > 100 µM
GI50 (ACHN renal): > 100 µM
TGI (ACHN renal): > 100 µM
GI50 (OVCAR-4 ovarian): 25.5 µM
TGI (OVCAR-4 ovarian): > 100 µM
GI50 (SK-MEL-2 melanoma): > 100 µM
TGI (SK-MEL-2 melanoma): > 100 µM
GI50 (NCI-H522 lung): 37 µM
TGI (NCI-H522 lung): > 100 µM
GI50 (SK-MEL-28 melanoma): > 100 µM
TGI (SK-MEL-28 melanoma): > 100 µM
GI50 (HCT-15 colon): > 100 µM
TGI (HCT-15 colon): > 100 µM
GI50 (COLO 205 colon): > 100 µM
TGI (COLO 205 colon): > 100 µM
GI50 (HCC-2998 colon): > 100 µM
TGI (HCC-2998 colon): > 100 µM
GI50 (T-47D breast): 6.95 µM
TGI (T-47D breast): > 100 µM
GI50 (UO-31 renal): 19.2 µM
TGI (UO-31 renal): > 100 µM
GI50 (SK-MEL-5 melanoma): 7.18 µM
TGI (SK-MEL-5 melanoma): > 100 µM
GI50 (786-0 renal): > 100 µM
TGI (786-0 renal): > 100 µM
GI50 (HOP-62 NSCLC): > 100 µM
TGI (HOP-62 NSCLC): > 100 µM
GI50 (HCT-116 colon): 7.03 µM
TGI (HCT-116 colon): > 100 µM
GI50 (HT29 colon): 73.2 µM
TGI (HT29 colon): > 100 µM
GI50 (SF-268 CNS): > 100 µM
TGI (SF-268 CNS): > 100 µM
GI50 (OVCAR-5 ovarian): > 100 µM
TGI (OVCAR-5 ovarian): > 100 µM
GI50 (UACC-257 melanoma): 14.1 µM
TGI (UACC-257 melanoma): > 100 µM
GI50 (MCF7 breast): 24.6 µM
TGI (MCF7 breast): > 100 µM
GI50 (UACC-62 melanoma): > 100 µM
TGI (UACC-62 melanoma): > 100 µM
